Consider 1 substance from patent US20100260680A1, “NOVEL BONE MASS INCREASING AGENT” (ORIENTAL YEAST CO., LTD., priority 2007, published 2010).

The subject of test [1] is GSK3β. In words: Western blotting of GSK3β phosphorylation in MC3T3-E1 cells. The class given is cell-based, mouse. To be noted: 1 and 3 hours after the addition; 200 μM peptide D or 200 ng/ml BMP-2. Here is the method:
MC3T3-E1 cells mixed with 10% FBS+αMEM (SIGMA) were seeded on a 6-well plate (7.5×10^4 cells/well). […] The medium was removed at the respective time points shown in the relevant figures. PBS was added to the cells, and the cells were collected with a scraper (Falcon). A cell pellet was obtained via centrifugation at 1200 rpm for 5 min at 4° C. RIPA buffer (100 μL) was added to the collected pellet, for dissolution of the cellular membrane. Further, the resultant was centrifuged under conditions of 14500 rpm for 25 min at 4° C. The supernatant was collected as a cell extract. A portion of the cell extract was used for quantification of the protein concentration with the use of a BCA protein assay kit (PIERCE). For SDS-PAGE, a sample buffer in an amount that was ¼ that of the cell extract (Fermentas) was added thereto, followed by heating at 95° C. for 5 min. The prepared sample was applied in an amount of 7.5 or 10 μg to 10% polyacrylamide gel (BioRad), followed by electrophoresis at 170 V for 1 hour. After electrophoresis, the electrophoresed sample was transferred to a PVDF membrane (Millipore) at 80 mA for 40 min. The membrane was shaken in a blocking solution (Nacalai) at room temperature for 1 hour and then a primary antibody was added thereto, followed by shaking at room temperature for 1 hour at 4° C. for 12 hours. […]

Test [2] relates to mouse osteoblasts. In words: Proliferative response of mouse osteoblasts (WST-1). The class given is cell-based. To be noted: 100 μM peptide D (acetate) or 3 μg/mL antibody; with or without 5 ng/mL BMP-2; 72-hour culture. Here is the method:
Mouse osteoblasts mixed with 10% FBS+αMEM (SIGMA) were seeded on a 96-well plate (2×10^3 cells/well). After cell adhesion had taken place, the medium was removed therefrom. […] After 72-hour culture, WST-1 (Roche) was added thereto in an amount 1/10 that of each medium, followed by incubation at 37° C. for 3 hours. Then, the OD value (450 nm) for each well was determined with a microplate reader (BMG Labtech) (reference wavelength: 595 nm).

In test [3] the test system is Human mesenchymal stem cells. In words: ALP activity determination in human mesenchymal stem cells. The class given is cell-based. To be noted: Day 7, differentiation medium and maintenance medium. Here is the method:
Human mesenchymal stem cells were seeded on a 96-well plate (1×10^3 cells/well) (Nunc) and a 48-well plate (2.4×10^3 cells/well) (IWAKI). After 24 hours, the culture supernatant was removed from each plate and an osteoblast differentiation induction medium (Lonza) was introduced thereonto. The medium was replaced with new medium every 3 or 4 days.
At such time, peptide D was added at a concentration of 100 μM (group treated with peptide D). As a negative control, the control peptide was added at the same concentration.
Seven days after differentiation, the culture supernatant was removed from each plate and the cells were fixed with an acetone/ethanol solution. The ALP activity was determined using p-nitrophenyl phosphate as a substrate. Specifically, a carbonate buffer (5 mM MgCl2, 50 mM NaHCO3) containing p-nitrophenyl phosphate (Nacalai) (1 mg/mL) was added to each well (100 μL/well), followed by incubation at 37° C. Then, the OD value at 405 nm was determined with the use of a microplate reader (BMG Labtech) for each well.
Human mesenchymal stem cells (hMSC; Lonza) were seeded on a 96-well plate (Nunc) (2×10^3 cells/well). After cell adhesion had taken place, the medium was replaced with a differentiation medium prepared by adding 100 nM dexamethasone (SIGMA), 10 mM BGP(SIGMA), and 50 μg/mL ascorbic acid to a dedicated maintenance medium (Lonza). […]

The test system of test [4] is Human mesenchymal stem cells. Put plainly: Alizarin red S staining (calcification) of human mesenchymal stem cells. The class given is cell-based. The note with it: 300 μM; Day 21; regardless of induction of differentiation. As for the experimental part:
On Day 21 after differentiation, the cells were washed with PBS, followed by fixation with a 10% neutral buffer formalin solution.
The cells were washed with water after removal of the fixative solution. A 1% alizarin red S stain solution (Nacalai) (150 μL) was added thereto. The plate was left at room temperature for 3 minutes. Thereafter, the stain solution was discarded, followed by washing with water and drying. Then, microscopic observation was carried out.
Human mesenchymal stem cells were cultured in the same manner as in Example 1. Peptide D (300 μM) was added to human mesenchymal stem cells.

Entries after “also recorded” stand apart in the source; their conditions may differ. Bridges are numbered along the chain shown (N, C = ends). Where no end group is shown, it is not given here.

With “peptide D: cyclic peptide of SEQ ID NO: 7, 9 amino acids, two cysteine residues bound via a disulfide bond; binds to RANKL (YCWSQYLCY; disulfide 2-8 (inferred))”, in test [1], the “phosphorylation of GSK3β” value was “confirmed to be induced”. Further, in test [2], the “mouse osteoblast proliferation (WST-1)” value was “promoted mouse osteoblast proliferation; also recorded: weak effects”. For the same substance, the ALP activity entry was “significant increase in ALP activity” in test [3] (300 μM) and “significantly increased” in test [3] (peptide D 100 μM). Also, in test [4], the “alizarin red staining (calcification)” value is reported as “strong degree of alizarin red staining”.
